# Measured values reported in patent publication US20020137929A1, “1 - (3-heterocyclylphenyl) isothiourea, -isourea, -guanidine and -amidine herbicidal agents” (Intellectual Property Department, BASF Aktiengesellschaft, priority 1998, published 2002).
# Assays:
# CYPIR (Rice Flatsedge) = assay: Preemergence weed control under flooded paddy conditions; format: in vivo, Cyperus iria; conditions: rated 3-4 weeks after treatment
# Outline: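 Ratings on a 0-9 visual scale cover stand, vigor, malformation, size, chlorosis and overall appearance relative to a control, taken three to four weeks post-treatment. Application was into flood water over freshly sown silt loam at roughly 0.0313 to 0.500 kg/ha.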
# ZEAMX (Corn, Field) = assay: Preemergence herbicidal evaluation; format: in vivo, Zea mays; conditions: rated 4-5 weeks after treatment, rating scale 0-9
# Outline: (§1)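 Visual 0-9 rating vs control (stand, vigor, malformation, size, chlorosis, overall appearance), scored 4-5 wk after spraying. Seeded soil cups were treated preemergence with compound in aqueous acetone, ~0.0156-0.500 kg/ha equivalent.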
# CASOB (Sicklepod) = assay: Postemergence herbicidal evaluation; format: in vivo, Cassia obtusifolia; conditions: postemergence
# Outline: (§2)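 ~2-wk seedlings; postemergence spray, 40 psi; vehicle 1:1 acetone:water + 0.5% Tween 20; rate ≈0.0156–0.500 kg/ha; greenhouse hold; scored 4–5 wk after treatment, 0–9 scale vs control; repeat tests averaged.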
# [1] = test system: TRZAWR (Wheat, Winter, cv Riband); assay: Preemergence herbicidal evaluation; format: in vivo, Triticum aestivum; conditions: rated 4-5 weeks after treatment, rating scale 0-9
# Outline: as §1
# SETVI (Foxtail, Green) = assay: Preemergence herbicidal evaluation; format: in vivo, Setaria viridis; conditions: rated 4-5 weeks after treatment, rating scale 0-9
# Outline: as §1
# MOOVA (Monochoria) = assay: Preemergence weed control under flooded paddy conditions; format: in vivo, Monochoria vaginalis; conditions: rated 3-4 weeks after treatment
# Outline: (§3)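 Herbicidal effect is scored visually on a 0-9 scale against an untreated control, three to four weeks after compounds are pipetted into the flood water (1.5 to 3 cm deep) over seeds planted in silt loam at 0.5 cm depth. Rates: about 0.0313 to 0.500 kg/ha.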
# [2] = test system: CHEAL (Lambsquarters, Common); assay: Postemergence herbicidal evaluation; format: in vivo, Chenopodium album; conditions: postemergence
# Outline: as §2
# ORYSAT (Rice, Tebonnet) [3] = assay: Postemergence herbicidal evaluation; format: in vivo, Oryza sativa, (L.) Tebonnet; conditions: postemergence
# Outline: as §2
# ORYSAT (Rice, Tebonnet) [4] = assay: Preemergence herbicidal evaluation; format: in vivo, Oryza sativa, (L.) Tebonnet; conditions: rated 4-5 weeks after treatment, rating scale 0-9
# Outline: as §1
# [5] = test system: GLXMAW (Soybean, Williams); assay: Preemergence herbicidal evaluation; format: in vivo, Glycine max, (L.) Merr. cv Williams; conditions: rated 4-5 weeks after treatment, rating scale 0-9
# Outline: as §1
# GALAP (Galium) = assay: Preemergence herbicidal evaluation; format: in vivo, Galium aparine; conditions: rated 4-5 weeks after treatment, rating scale 0-9
# Outline: as §1
# ECHCG (Barnyardgrass) = assay: Postemergence herbicidal evaluation; format: in vivo, Echinochloa crus-galli; conditions: postemergence
# Outline: as §2
# [6] = test system: SAGPY (Arrowhead (Pygmaea)); assay: Preemergence weed control under flooded paddy conditions; format: in vivo, Sagittaria pygmaea; conditions: rated 3-4 weeks after treatment
# Outline: as §3
smiles,measurement,setting,value
"Cn1c(C(F)(F)F)cc(=O)n(-c2cc(N=C3SCC(=O)N3Cc3ccc(F)cc3)c(Cl)cc2F)c1=O [Compound 151, 3-{4-Chloro-2-fluoro-5-{[3-(p-fluorobenzyl)-4-oxo-2-thiazolidinylidene]amino}phenyl}-1-methyl-6-(trifluoromethyl)-2,4(1H,3H)-pyrimidinedione]","herbicidal effect rating, CYPIR",CYPIR (Rice Flatsedge); 0.0313 kg/ha,0.0
same,"herbicidal effect rating, CYPIR",CYPIR (Rice Flatsedge); 0.0625 kg/ha,2.0
same,"herbicidal effect rating, CYPIR",CYPIR (Rice Flatsedge); 0.1250 kg/ha,6.0
same,"herbicidal effect rating, CYPIR",CYPIR (Rice Flatsedge); 0.2500 kg/ha,8.0
same,Preemergence herbicidal rating ZEAMX,"ZEAMX (Corn, Field); rate 0.0156 kg/ha",7.0
same,Preemergence herbicidal rating ZEAMX,"ZEAMX (Corn, Field); rate 0.0313 kg/ha",7.0
same,Preemergence herbicidal rating ZEAMX,"ZEAMX (Corn, Field); rate 0.0625 kg/ha",7.0
same,Preemergence herbicidal rating ZEAMX,"ZEAMX (Corn, Field); rate 0.1250 kg/ha",9.0
same,Preemergence herbicidal rating ZEAMX,"ZEAMX (Corn, Field); rate 0.2500 kg/ha",9.0
same,Herbicidal rating CASOB,CASOB (Sicklepod); rate 0.0156 kg/ha,2.0
same,Herbicidal rating CASOB,CASOB (Sicklepod); rate 0.0313 kg/ha,4.0
same,Herbicidal rating CASOB,CASOB (Sicklepod); rate 0.0625 kg/ha,4.0
same,Preemergence herbicidal rating TRZAWR,[1]; rate 0.0156 kg/ha,2.0
same,Preemergence herbicidal rating TRZAWR,[1]; rate 0.0313 kg/ha,6.0
same,Preemergence herbicidal rating TRZAWR,[1]; rate 0.0625 kg/ha,5.0
same,Preemergence herbicidal rating TRZAWR,[1]; rate 0.1250 kg/ha,8.0
same,Preemergence herbicidal rating TRZAWR,[1]; rate 0.2500 kg/ha,9.0
same,Preemergence herbicidal rating SETVI,"SETVI (Foxtail, Green); rate 0.0156 kg/ha",9.0
same,Preemergence herbicidal rating SETVI,"SETVI (Foxtail, Green); rate 0.0313 kg/ha",9.0
same,Preemergence herbicidal rating SETVI,"SETVI (Foxtail, Green); rate 0.0625 kg/ha",9.0
same,Preemergence herbicidal rating SETVI,"SETVI (Foxtail, Green); rate 0.1250 kg/ha",9.0
same,Preemergence herbicidal rating SETVI,"SETVI (Foxtail, Green); rate 0.2500 kg/ha",9.0
same,"herbicidal effect rating, MOOVA",MOOVA (Monochoria); 0.0313 kg/ha,6.0
same,"herbicidal effect rating, MOOVA",MOOVA (Monochoria); 0.0625 kg/ha,9.0
same,"herbicidal effect rating, MOOVA",MOOVA (Monochoria); 0.1250 kg/ha,9.0
same,"herbicidal effect rating, MOOVA",MOOVA (Monochoria); 0.2500 kg/ha,9.0
same,Herbicidal rating CHEAL,[2]; rate 0.0156 kg/ha,9.0
same,Herbicidal rating CHEAL,[2]; rate 0.0313 kg/ha,7.0
same,Herbicidal rating CHEAL,[2]; rate 0.0625 kg/ha,9.0
same,Herbicidal rating ORYSAT,"ORYSAT (Rice, Tebonnet) [3]; rate 0.0156 kg/ha",2.0
same,Herbicidal rating ORYSAT,"ORYSAT (Rice, Tebonnet) [3]; rate 0.0313 kg/ha",2.5
same,Herbicidal rating ORYSAT,"ORYSAT (Rice, Tebonnet) [3]; rate 0.0625 kg/ha",3.5
same,Preemergence herbicidal rating ORYSAT,"ORYSAT (Rice, Tebonnet) [4]; rate 0.0156 kg/ha",2.0
same,Preemergence herbicidal rating ORYSAT,"ORYSAT (Rice, Tebonnet) [4]; rate 0.0313 kg/ha",5.0
same,Preemergence herbicidal rating ORYSAT,"ORYSAT (Rice, Tebonnet) [4]; rate 0.0625 kg/ha",5.0
same,Preemergence herbicidal rating ORYSAT,"ORYSAT (Rice, Tebonnet) [4]; rate 0.1250 kg/ha",9.0
same,Preemergence herbicidal rating ORYSAT,"ORYSAT (Rice, Tebonnet) [4]; rate 0.2500 kg/ha",9.0
same,Preemergence herbicidal rating GLXMAW,[5]; rate 0.0156 kg/ha,2.0
same,Preemergence herbicidal rating GLXMAW,[5]; rate 0.0313 kg/ha,5.0
same,Preemergence herbicidal rating GLXMAW,[5]; rate 0.0625 kg/ha,4.0
same,Preemergence herbicidal rating GLXMAW,[5]; rate 0.1250 kg/ha,7.0
same,Preemergence herbicidal rating GLXMAW,[5]; rate 0.2500 kg/ha,7.0
same,Preemergence herbicidal rating GALAP,GALAP (Galium); rate 0.0156 kg/ha,2.0
same,Preemergence herbicidal rating GALAP,GALAP (Galium); rate 0.0313 kg/ha,4.0
same,Preemergence herbicidal rating GALAP,GALAP (Galium); rate 0.0625 kg/ha,4.0
same,Preemergence herbicidal rating GALAP,GALAP (Galium); rate 0.1250 kg/ha,9.0
same,Preemergence herbicidal rating GALAP,GALAP (Galium); rate 0.2500 kg/ha,9.0
same,Herbicidal rating ECHCG,ECHCG (Barnyardgrass); rate 0.0156 kg/ha,3.0
same,Herbicidal rating ECHCG,ECHCG (Barnyardgrass); rate 0.0313 kg/ha,3.0
same,Herbicidal rating ECHCG,ECHCG (Barnyardgrass); rate 0.0625 kg/ha,4.0
same,"herbicidal effect rating, SAGPY",[6]; 0.0313 kg/ha,0.0
same,"herbicidal effect rating, SAGPY",[6]; 0.0625 kg/ha,2.0
same,"herbicidal effect rating, SAGPY",[6]; 0.1250 kg/ha,8.0
same,"herbicidal effect rating, SAGPY",[6]; 0.2500 kg/ha,6.0
"CCOC(=O)CN1C(=O)C(Br)SC1=Nc1cc(-n2c(=O)cc(C(F)(F)F)n(C)c2=O)c(F)cc1Cl (stereo not drawn) [Compound 153, Ethyl 5-bromo-2-[{2-chloro-5-[3,6-dihydro-3-methyl-2,6-dioxo-4-(trifluoromethyl)-1(2H)-pyrimidinyl]-4-fluorophenyl}imino}-4-oxo-3-thiazolidineacetate]","herbicidal effect rating, CYPIR",CYPIR (Rice Flatsedge); 0.0625 kg/ha,0.0
same,"herbicidal effect rating, CYPIR",CYPIR (Rice Flatsedge); 0.1250 kg/ha,0.0
same,"herbicidal effect rating, CYPIR",CYPIR (Rice Flatsedge); 0.2500 kg/ha,3.0
same,Preemergence herbicidal rating ZEAMX,"ZEAMX (Corn, Field); rate 0.1250 kg/ha",0.0
same,Preemergence herbicidal rating ZEAMX,"ZEAMX (Corn, Field); rate 0.2500 kg/ha",0.0
same,Herbicidal rating CASOB,CASOB (Sicklepod); rate 0.0156 kg/ha,0.0
same,Herbicidal rating CASOB,CASOB (Sicklepod); rate 0.0313 kg/ha,0.0
same,Herbicidal rating CASOB,CASOB (Sicklepod); rate 0.0625 kg/ha,1.0
same,Preemergence herbicidal rating TRZAWR,[1]; rate 0.1250 kg/ha,0.0
same,Preemergence herbicidal rating TRZAWR,[1]; rate 0.2500 kg/ha,0.0
same,Preemergence herbicidal rating SETVI,"SETVI (Foxtail, Green); rate 0.1250 kg/ha",1.0
same,Preemergence herbicidal rating SETVI,"SETVI (Foxtail, Green); rate 0.2500 kg/ha",0.0
same,"herbicidal effect rating, MOOVA",MOOVA (Monochoria); 0.0625 kg/ha,3.0
same,"herbicidal effect rating, MOOVA",MOOVA (Monochoria); 0.1250 kg/ha,4.0
same,"herbicidal effect rating, MOOVA",MOOVA (Monochoria); 0.2500 kg/ha,5.0
same,Herbicidal rating CHEAL,[2]; rate 0.0156 kg/ha,0.0
same,Herbicidal rating CHEAL,[2]; rate 0.0313 kg/ha,1.0
same,Herbicidal rating CHEAL,[2]; rate 0.0625 kg/ha,1.0
same,Herbicidal rating ORYSAT,"ORYSAT (Rice, Tebonnet) [3]; rate 0.0156 kg/ha",1.5
same,Herbicidal rating ORYSAT,"ORYSAT (Rice, Tebonnet) [3]; rate 0.0313 kg/ha",1.5
same,Herbicidal rating ORYSAT,"ORYSAT (Rice, Tebonnet) [3]; rate 0.0625 kg/ha",1.5
same,Preemergence herbicidal rating ORYSAT,"ORYSAT (Rice, Tebonnet) [4]; rate 0.1250 kg/ha",0.0
same,Preemergence herbicidal rating ORYSAT,"ORYSAT (Rice, Tebonnet) [4]; rate 0.2500 kg/ha",0.0
same,Preemergence herbicidal rating GLXMAW,[5]; rate 0.1250 kg/ha,0.0
same,Preemergence herbicidal rating GLXMAW,[5]; rate 0.2500 kg/ha,1.0
same,Preemergence herbicidal rating GALAP,GALAP (Galium); rate 0.1250 kg/ha,0.0
same,Preemergence herbicidal rating GALAP,GALAP (Galium); rate 0.2500 kg/ha,1.0
same,Herbicidal rating ECHCG,ECHCG (Barnyardgrass); rate 0.0156 kg/ha,0.0
same,Herbicidal rating ECHCG,ECHCG (Barnyardgrass); rate 0.0313 kg/ha,0.0
same,Herbicidal rating ECHCG,ECHCG (Barnyardgrass); rate 0.0625 kg/ha,1.0
same,"herbicidal effect rating, SAGPY",[6]; 0.0625 kg/ha,0.0
same,"herbicidal effect rating, SAGPY",[6]; 0.1250 kg/ha,0.0
same,"herbicidal effect rating, SAGPY",[6]; 0.2500 kg/ha,0.0
